In one data set the test system is cardiomyocytes. Briefly: Drug screening on bare and embedded PDMS cantilevers (beat displacement). The class given is cell-based, rat. The settings on record: for displacement reduction: 10 nM drug; for contraction returned compared with before drug treatment: 24 h after media replacement. The text has this: To quantitatively analyze the correlation between cell maturation and drug toxicity, polymer cantilever arrays composed of the bare thin film and the embedded thin film were fabricated.

Data set [1] relates to neonatal rat ventricular myocytes (NRVMs). The data set is described as follows: Comparison of NRVM and hiPSC-CM in drug test (NRVM). The class given is cell-based. To be noted: animal cells. The text has this: (§1) There are several similarities and differences in the drug response between animal and human cardiomyocytes.
For data set [2], the system named is human-induced pluripotent stem cell-cardiomyocytes (hiPSC-CMs). Briefly: Comparison of NRVM and hiPSC-CM in drug test (hiPSC-CM). The class given is cell-based.
From the text: as §1

Data set [3] has the same test system. The data set is described as follows: Drug screening for hiPSC-CMs on bare and embedded PDMS. The class given is cell-based. To be noted: after 48 h. The procedure: Since pre-clinical studies on rats could not completely predict effects on the human heart, human-induced pluripotent stem cell-cardiomyocytes (hiPSC-CMs) had significant advantages over the use of animal models. To further investigate the responses of different drugs on immature and mature cardiomyocytes in human cells, hiPSC-CMs were cultured.

By pIC50 is commonly meant the negative decadic logarithm of the IC50, by convention in mol/L. Read a low pIC50 as a high IC50.

pIC50: −log10 of the molar value. Bounds are passed on as bounds.

As to `Cc1cccc(CCN2CCC(C(=O)c3ccc(NS(C)(=O)=O)cc3)CC2)n1` [E-4031], the “resistance of cardiomyocytes to the drug” value in the data set on cardiomyocytes (cultured on embedded PDMS, FIGS. 17B and 17C) is given as “enhanced resistance”.
Turning to `Cc1ccc2c(c1)C(=O)C1(O)CCN(c3ccccc3)C1=N2` (stereo not shown) [blebbistatin], the displacement reduction result in the data set on cardiomyocytes (bare PDMS cantilever) was “half displacement reduction”; in the data set with cardiomyocytes (embedded PDMS cantilever), “about 10%”. Besides, the beating of cardiomyocytes entry in the data set on cardiomyocytes (1 μM drug, cultured on bare PDMS) was “no longer beat”. Further, in the data set with cardiomyocytes (1 μM drug, cultured on embedded PDMS), the “beat rate level compared with the maximum displacement value” turned out to be 20%. In addition, the “contraction returned compared with before drug treatment” value in the data set with cardiomyocytes (bare PDMS cantilever) is given as 10%; in the data set with cardiomyocytes (embedded PDMS cantilever), no less than 75%. Further, the “decreased contraction force returned after washing” value in the data set on cardiomyocytes (after washing for 48 h, AgNW-embedded PDMS substrate) worked out at 75%. The “beat behavior after washing” value in the data set with cardiomyocytes (after washing for 48 h, control bare PDMS) is listed as “not returned to the initial state”. Also, the pIC50 on cardiomyocytes (cardiomyocytes cultured on bare PDMS thin film) was 6.76; on cardiomyocytes (cardiomyocytes cultured on embedded PDMS thin film), 6.28; in data set [2] ((b) of FIG. 20A, NRVM vs hiPSC-CM comparison, cell type of the value not stated), roughly 6.00. The “tendency of beat frequency and contraction with increasing drug” value was “decrease both beat frequency and contraction force” in data set [1]; “decrease only displacement” in data set [2] (human cells). Further, the “contraction force returned after replacement of culture” value in data set [3] (hiPSC-CMs on bare PDMS) is reported as “did not return”; in data set [3] (hiPSC-CMs on embedded PDMS), no less than 70%.

Values taken from patent US12448491B2, “Nano-patterend conductive polymer substrate with improved cell alignment, maturity, adhesion, and connectivity and method for manufacturing same” (priority 2022, dated 2025).
